Results published in patent US8471061B2 (priority 2004, dated 2013).
Values joined by “and” are separate entries in the source; they are usually repeats but may differ in a detail not shown here. Equal values may be shown once.

Key:
[1] = Test on the generation of silver chloride precipitation with silver nitrate; type: physicochemical; details: 0.5 g with 0.5 g of silver nitrate in 10 ml of ion exchange water, 5 minutes
Protocol: In 10 ml of ion exchange water, 0.5 g of 5-aminolevulinic acid phosphate and 0.5 g of silver nitrate were dissolved, the mixture was allowed to stand still for 5 minutes, and conditions of the liquid was observed. […] In this connection, 0.5 g of 5-aminolevulinic acid hydrochloride and 0.5 g of silver nitrate were dissolved in 10 ml of ion exchange water and allowed to stand still for 5 minutes, and conditions of the liquid was observed.
In 10 ml of ion exchange water, 0.5 g of 5-aminolevulinic acid nitrate and 0.5 g of silver nitrate were dissolved, the mixture was allowed to stand still for 5 minutes, and conditions of the liquid was observed.
In this connection, 0.5 g of 5-aminolevulinic acid hydrochloride and 0.5 g of silver nitrate were dissolved in 10 ml of ion exchange water and allowed to stand still for 5 minutes, and conditions of the liquid was observed.
In 10 ml of ion exchange water, 0.5 g of 5-aminolevulinic acid p-toluenesulfonate and 0.5 g of silver nitrate were dissolved, the mixture was allowed to stand still for 5 minutes, and conditions of the liquid was observed.

Rice seeds (Akinishiki) = assay: Plant growth regulation effect; type: in vivo; details: ratio to untreated plot
Protocol: Rice seeds (Akinishiki) were soaked in Benlate (manufactured by Sumika Takeda Engei) (200 times) aqueous solution for a whole day and night and then incubated at 30° C. under a dark condition to effect hastening of germination. Seeds of even pigeon breast stage were selected, 10 seeds were inserted using a pair of tweezers into a groove on one expanded polyethylene sheet, which was made using a cutter knife, and this sheet was floated on a tall Petri dish filled with 150 ml of 5-aminolevulinic acid phosphate of respective concentrations shown in Table 11 and incubated at 25° C. for 24 hours under 5,000 lux continuous light irradiation. The number of repetitions was set to 3 repetitions for each concentration. Examination was carried out three days thereafter, and lengths of the first leaf sheath and seminal root in each plot were measured to calculate their ratios to those in the untreated plot and to calculate average values thereof.

[2] = Degradation test by sterilization; type: physicochemical; details: 50 mg heat sterilized, 121° C., 20 minutes, 1.5 kgf/cm^2
Protocol: Firstly, 50 mg of 5-aminolevulinic acid p-toluenesulfonate or 5-aminolevulinic acid hydrochloride was heat sterilized (121° C., 20 minutes, 1.5 kgf/cm^2). After confirming that there is no change in weight before and after the sterilization, degree of degradation of 5-aminolevulinic acid before and after the sterilization was verified by the method described in a reference (Clin. Chem., 36/8, 1494 (1990)).

[3] = Acidity measurement of aqueous solutions with a pH meter; type: physicochemical; details: 1 to 1000 mM, 25° C., same concentration
Protocol: Aqueous 5-aminolevulinic acid phosphate solutions and aqueous 5-aminolevulinic acid hydrochloride solutions having a concentration of from 1 to 1000 mM were respectively prepared, and their acidity was measured at 25° C. using a pH meter.

[4] = system: Salmonella typhimurium TA 100, TA 98, TA 1535 and TA 1537 and Escherichia coli WP2 uvrA; assay: Mutagenicity test (back mutation test) using microorganisms, all strains; type: cell-based
Protocol: A test was carried out in accordance with the “Standard of Mutagenicity Tests Using Microorganisms” (Ministry of Labor Notification No. 77, 1988) (partial revision by Ministry of Labor Notification No. 67, 1997) and “Regarding the Tests Concerning Novel Chemical Substances and the like” (dated Nov. 21, 2003: Yaku-Shoku-Hatsu No. 1121002, 2003.11.13 Sei-Kyoku, No. 2, Kan-Ho-Ki-Hatsu No. 031121002). […] In the measurement, an inner area of about 80 mm in diameter of a plate of 86 mm in diameter (84 mm in inner diameter) was measured using an automatic colony analyzer (CA-11: manufactured by System Science), and calculated by carrying out area correction and counting loss correction using a personal computer. However, since reliability of the automatic colony analyzer is reduced when the number of colonies is 1,500 or more, 5 points in the plate were manually measured under the stereoscopic microscope to carry out area correction of the average value. […]

[5] = system: Escherichia coli WP2 uvrA; assay: Back mutation test, WP2uvrA; type: cell-based; details: for number of back mutation, single plates: Phosphate
Protocol: A test was carried out in accordance with the “Standard of Mutagenicity Tests Using Microorganisms” (Ministry of Labor Notification No. 77, 1988) (partial revision by Ministry of Labor Notification No. 67, 1997) and “Regarding the Tests Concerning Novel Chemical Substances and the like” (dated Nov. 21, 2003: Yaku-Shoku-Hatsu No. 1121002, 2003.11.13 Sei-Kyoku, No. 2, Kan-Ho-Ki-Hatsu No. 031121002). To 0.1 ml of a solution prepared by dissolving 5% (w/v) of 5-aminolevulinic acid phosphate in distilled water (Wako Pure Chemical Industries), 0.5 ml of 0.1 M sodium-phosphate buffer (pH 7.4) (0.5 ml S9 mix in the case of metabolism activation test) was added, and 0.1 ml of each test strain suspension (5 strains of histidine-less Salmonella typhimurium TA 100, TA 98, TA 1535 and TA 1537 and tryptophan-less Escherichia coli WP2 uvrA were used (Japan Bioassay Research Center)) was further added thereto, followed by pre-incubation at 37° C. for 20 minutes while shaking. After completion of the culturing, 2.0 ml of top agar kept at 45° C. in advance was added thereto and layered on a minimum glucose agar plate medium. In this case, 2 plates were arranged for each dosage. However, 3 plates were arranged for a solvent control (negative control). […] In the measurement, an inner area of about 80 mm in diameter of a plate of 86 mm in diameter (84 mm in inner diameter) was measured using an automatic colony analyzer (CA-11: manufactured by System Science), and calculated by carrying out area correction and counting loss correction using a personal computer. However, since reliability of the automatic colony analyzer is reduced when the number of colonies is 1,500 or more, 5 points in the plate were manually measured under the stereoscopic microscope to carry out area correction of the average value. A dosage setting test was carried out on 7 dosages diluted at a common ratio of 4, using a dosage of 5,000 μg/plate as the maximum which is the maximum dosage defined by the guideline. […] Growth inhibition of the strains by this substance to be tested was not found. […] Thus, this test was carried out by setting 5 dosages diluted at a common ratio of 2, using a dosage of 5,000 μg/plate as the maximum which is the maximum dosage defined by the guideline.

Cl.NCC(=O)CCC(=O)O [5-aminolevulinic acid hydrochloride, reference compound]
generation of precipitate [1]: Generation of the precipitate was found | First leaf sheath length (%) (Rice seeds (Akinishiki); 1 ppm): 107% | Seminal root length (%) (Rice seeds (Akinishiki); 1 ppm): 103% | First leaf sheath length (%) (Rice seeds (Akinishiki); 10 ppm): 101% | Seminal root length (%) (Rice seeds (Akinishiki); 10 ppm): 96% | First leaf sheath length (%) (Rice seeds (Akinishiki); 100 ppm): 98% | Seminal root length (%) (Rice seeds (Akinishiki); 100 ppm): 109% | Degradation degree (%) [2]: 6.6%

NCC(=O)CCC(=O)O.O=P(O)(O)O [5-aminolevulinic acid phosphate, 5-aminolevulinic Acid Phosphate]
acidity of aqueous solution (FIG. 1) [3]: lower than that of the aqueous 5-aminolevulinic acid hydrochloride solution | mutation inducing ability [4]: does not have the mutation inducing ability | number of back mutation, mean (in parentheses) ([5]; S9 Mix(+), 313 μg/plate): (24) colonies/plate | number of back mutation, single plates ([5]; S9 Mix(+), 313 μg/plate): 31 colonies/plate and 17 colonies/plate | number of back mutation, mean (in parentheses) ([5]; S9 Mix(+), 625 μg/plate): (32) colonies/plate | number of back mutation, single plates ([5]; S9 Mix(+), 625 μg/plate): 40 colonies/plate and 24 colonies/plate | number of back mutation, mean (in parentheses) ([5]; S9 Mix(+), 1250 μg/plate): (32) colonies/plate | number of back mutation, single plates ([5]; S9 Mix(+), 1250 μg/plate): 34 colonies/plate and 29 colonies/plate | number of back mutation, mean (in parentheses) ([5]; S9 Mix(+), 2500 μg/plate): (25) colonies/plate | number of back mutation, single plates ([5]; S9 Mix(+), 2500 μg/plate): 23 colonies/plate and 27 colonies/plate | number of back mutation, mean (in parentheses) ([5]; S9 Mix(+), 5000 μg/plate): (28) colonies/plate | number of back mutation, single plates ([5]; S9 Mix(+), 5000 μg/plate): 25 colonies/plate and 30 colonies/plate | number of back mutation, mean (in parentheses) ([5]; S9 Mix(−), 313 μg/plate): (31) colonies/plate | number of back mutation, single plates ([5]; S9 Mix(−), 313 μg/plate): 25 colonies/plate and 36 colonies/plate | number of back mutation, mean (in parentheses) ([5]; S9 Mix(−), 625 μg/plate): (28) colonies/plate | number of back mutation, single plates ([5]; S9 Mix(−), 625 μg/plate): 27 colonies/plate and 28 colonies/plate | number of back mutation, mean (in parentheses) ([5]; S9 Mix(−), 1250 μg/plate): (31) colonies/plate | number of back mutation, single plates ([5]; S9 Mix(−), 1250 μg/plate): 28 colonies/plate and 33 colonies/plate | number of back mutation, mean (in parentheses) ([5]; S9 Mix(−), 2500 μg/plate): (27) colonies/plate | number of back mutation, single plates ([5]; S9 Mix(−), 2500 μg/plate): 25 colonies/plate and 28 colonies/plate | number of back mutation, mean (in parentheses) ([5]; S9 Mix(−), 5000 μg/plate): (31) colonies/plate | number of back mutation, single plates ([5]; S9 Mix(−), 5000 μg/plate): 25 colonies/plate and 36 colonies/plate | generation of precipitate [1]: Generation of the precipitate was not found | First leaf sheath length (%) (Rice seeds (Akinishiki); 1 ppm): 102% | Seminal root length (%) (Rice seeds (Akinishiki); 1 ppm): 106% | First leaf sheath length (%) (Rice seeds (Akinishiki); 10 ppm): 106% | Seminal root length (%) (Rice seeds (Akinishiki); 10 ppm): 108% | First leaf sheath length (%) (Rice seeds (Akinishiki); 100 ppm): 101% | Seminal root length (%) (Rice seeds (Akinishiki); 100 ppm): 101%
